Several values for one entry are separate records, joined by “and”; a condition that tells them apart may be missing. Identical values can stand only once. Inconclusive results and toxic doses are left out. How the source made its calls: active means survival T/C of 150% or more; inactive means T/C below 125% in these data.
Tested on: BDF1 mice, P388 leukemia ip, median survival T/C
Assay: NCI In Vivo Anticancer Drug Screen. Data for tumor model P388 Leukemia (intraperitoneal) in B6D2F1 (BDF1) mice
Settings: endpoint: median survival time, higher = longer survival
Method in brief: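 Transplantable tumour in mice; compound vs vehicle dosing; survival scored; ratio of treated to control reported.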

[1] = dose: 12.5 mg/kg/injection, schedule: Q04DX003 (ip), vehicle: saline with Tween-80
[2] = dose: 25.0 mg/kg/injection, schedule: Q04DX003 (ip), vehicle: saline with Tween-80
[3] = dose: 12.5 mg/kg/injection, schedule: Q01DX009 (ip), vehicle: saline with Tween-80
[4] = dose: 25.0 mg/kg/injection, schedule: Q01DX009 (ip), vehicle: saline with Tween-80
[5] = dose: 50.0 mg/kg/injection, schedule: Q04DX003 (ip), vehicle: saline with Tween-80
[6] = dose: 25.0 mg/kg/injection, schedule: Q01DX009 (ip), vehicle: saline
[7] = dose: 50.0 mg/kg/injection, schedule: Q01DX009 (ip), vehicle: saline
[8] = dose: 50.0 mg/kg/injection, schedule: Q04DX003 (ip), vehicle: saline
[9] = dose: 100.0 mg/kg/injection, schedule: Q01DX009 (ip), vehicle: saline with Tween-80
[10] = dose: 100.0 mg/kg/injection, schedule: Q04DX003 (ip), vehicle: saline
[11] = dose: 200.0 mg/kg/injection, schedule: Q04DX003 (ip), vehicle: saline
[12] = dose: 400.0 mg/kg/injection, schedule: Q01DX009 (ip), vehicle: saline with Tween-80
[13] = dose: 400.0 mg/kg/injection, schedule: Q01DX009 (ip), vehicle: saline
[14] = dose: 400.0 mg/kg/injection, schedule: Q04DX003 (ip), vehicle: saline
[15] = dose: 50.0 mg/kg/injection, schedule: Q01DX009 (ip), vehicle: saline with Tween-80
[16] = dose: 200.0 mg/kg/injection, schedule: Q01DX009 (ip), vehicle: saline with Tween-80

Measured: T/C

CCCOC1=C(N2CC2)C(=O)C(OCCC)=C(N2CC2)C1=O
inactive: dose: 2.2 mg/kg/injection, schedule: Q04DX003 (ip), vehicle: saline with Tween-80 117 % of control
active: dose: 5.55 mg/kg/injection, schedule: Q04DX003 (ip), vehicle: saline with Tween-80 200 % of control | dose: 7.5 mg/kg/injection, schedule: Q04DX003 (ip), vehicle: saline with Tween-80 165 % of control | dose: 8.33 mg/kg/injection, schedule: Q04DX003 (ip), vehicle: saline with Tween-80 163 % of control and 200 % of control | [1] 186 % of control and 200 % of control and 218 % of control | dose: 18.7 mg/kg/injection, schedule: Q04DX003 (ip), vehicle: saline with Tween-80 245 % of control and 260 % of control | [2] 163 % of control

O=Nc1c(N=O)c(N=O)c(N=O)c(N=O)c1N=O
inactive: dose: 1.25 mg/kg/injection, schedule: Q01DX010 (ip), vehicle: saline 90 % of control | dose: 2.5 mg/kg/injection, schedule: Q01DX010 (ip), vehicle: saline 100 % of control | dose: 5.0 mg/kg/injection, schedule: Q01DX010 (ip), vehicle: saline 100 % of control | dose: 10.0 mg/kg/injection, schedule: Q01DX010 (ip), vehicle: saline 95 % of control | dose: 80.0 mg/kg/injection, schedule: Q01DX010 (ip), vehicle: saline 104 % of control

COC1C(C)OC(OC2CC(C)(O)Cc3cc4c(c(O)c32)C(=O)c2c(O)cc3c(c2C4=O)OC2OC3(C)C(O)C(N(C)C)C2O)C(OC)C1(C)OC (stereo not given)
inactive: dose: 1.25 mg/kg/injection, schedule: Q01DX009 (ip), vehicle: other 122 % of control | dose: 20.0 mg/kg/injection, schedule: Q04DX003 (ip), vehicle: water 111 % of control
active: dose: 4.32 mg/kg/injection, schedule: Q04DX003 (ip), vehicle: water 169 % of control | dose: 5.0 mg/kg/injection, schedule: Q01DX009 (ip), vehicle: other 154 % of control | dose: 7.2 mg/kg/injection, schedule: Q04DX003 (ip), vehicle: water 183 % of control | dose: 10.0 mg/kg/injection, schedule: Q01DX009 (ip), vehicle: other 151 % of control

O=S(=O)(F)c1ccc(N=C=S)cc1
inactive: dose: 6.25 mg/kg/injection, schedule: Q01DX009 (ip), vehicle: saline with Tween-80 120 % of control | [3] 116 % of control | [4] 112 % of control

C1=CC2CC1C1CSCC21 (stereo not given)
inactive: dose: 0.03 mg/kg/injection, schedule: Q04DX003 (ip), vehicle: saline 100 % of control | dose: 0.06 mg/kg/injection, schedule: Q04DX003 (ip), vehicle: saline 91 % of control | dose: 0.13 mg/kg/injection, schedule: Q04DX003 (ip), vehicle: saline 95 % of control | dose: 0.19 mg/kg/injection, schedule: Q01DX009 (ip), vehicle: saline 95 % of control | dose: 0.27 mg/kg/injection, schedule: Q04DX003 (ip), vehicle: saline 100 % of control | dose: 0.39 mg/kg/injection, schedule: Q01DX009 (ip), vehicle: saline 104 % of control

CC(C)(C)c1ccc(OCc2cnc[nH]2)cc1
inactive: dose: 100.0 mg/kg/injection, schedule: Q01DX001 (ip), vehicle: saline 113 % of control

Cc1cc(N/N=C/c2ccc(N(CCCl)CCCl)cc2)c2cc3c(cc2n1)OCO3
inactive: [1] 114 % of control | [2] 105 % of control | [5] 115 % of control

NC(=O)CC[n+]1ccccc1
inactive: dose: 12.5 mg/kg/injection, schedule: Q01DX009 (ip), vehicle: saline 94 % of control | [6] 100 % of control | [7] 99 % of control

CN(C)C(=O)Nc1ccc(Cl)cc1
inactive: dose: 50.0 mg/kg/injection, schedule: Q01DX001 (ip), vehicle: saline with Tween-80 95 % of control | dose: 100.0 mg/kg/injection, schedule: Q01DX001 (ip), vehicle: saline with Tween-80 100 % of control | dose: 200.0 mg/kg/injection, schedule: Q01DX001 (ip), vehicle: saline with Tween-80 104 % of control

CCOc1ccc2nnnn2n1
inactive: dose: 62.5 mg/kg/injection, schedule: Q01DX009 (ip), vehicle: saline 100 % of control | dose: 250.0 mg/kg/injection, schedule: Q01DX009 (ip), vehicle: saline 97 % of control

CC(=O)OCC(=O)[C@@]1(O)CC[C@H]2[C@@H]3CCC4=CC(=O)C=C[C@]4(C)[C@@]3(F)[C@@H](O)C[C@@]21C
inactive: dose: 12.5 mg/kg/injection, schedule: Q01DX009 (ip), vehicle: saline sonified 104 % of control | dose: 25.0 mg/kg/injection, schedule: Q01DX009 (ip), vehicle: saline sonified 109 % of control | dose: 50.0 mg/kg/injection, schedule: Q01DX009 (ip), vehicle: saline sonified 100 % of control

ClCC[N+]12CC[N+](CCCl)(CC1)C2
inactive: [3] 103 % of control | [4] 118 % of control and 116 % of control | [2] 108 % of control | [5] 93 % of control and 108 % of control | [8] 103 % of control | [10] 122 % of control | [12] 112 % of control | dose: 400.0 mg/kg/injection, schedule: Q04DX003 (ip), vehicle: saline with Tween-80 96 % of control | dose: 600.0 mg/kg/injection, schedule: Q04DX003 (ip), vehicle: saline with Tween-80 95 % of control
active: [9] 150 % of control and 206 % of control and 168 % of control | dose: 100.0 mg/kg/injection, schedule: Q04DX003 (ip), vehicle: saline with Tween-80 171 % of control | [11] 165 % of control | dose: 264.0 mg/kg/injection, schedule: Q04DX003 (ip), vehicle: saline with Tween-80 200 % of control | [13] 178 % of control | [14] 244 % of control

CN1CC([N+](=O)[O-])C(=O)C([N+](=O)[O-])C1 (stereo not given)
inactive: dose: 50.0 mg/kg/injection, schedule: Q01DX005 (ip), vehicle: saline with Tween-80 92 % of control | dose: 100.0 mg/kg/injection, schedule: Q01DX005 (ip), vehicle: saline with Tween-80 87 % of control | dose: 200.0 mg/kg/injection, schedule: Q01DX005 (ip), vehicle: saline with Tween-80 103 % of control

O=C(c1cc(Cl)cc(Cl)c1)N1CC1
inactive: [6] 106 % of control | dose: 25.0 mg/kg/injection, schedule: Q04DX003 (ip), vehicle: saline 100 % of control | [7] 113 % of control | [8] 100 % of control | dose: 100.0 mg/kg/injection, schedule: Q01DX009 (ip), vehicle: saline 103 % of control | [10] 98 % of control | dose: 200.0 mg/kg/injection, schedule: Q01DX009 (ip), vehicle: saline 113 % of control | [11] 114 % of control | [13] 113 % of control | [14] 106 % of control

CN1NCc2cncnc21
inactive: [15] 90 % of control | [9] 99 % of control | [16] 99 % of control | [12] 90 % of control

OC(Cc1cccnc1)(c1ccccc1)c1ccc(Cl)cc1 (stereo not given)
inactive: [15] 105 % of control | [9] 100 % of control | [16] 96 % of control

COc1cc(C(=O)O)c2c(c1C)OC(=O)c1c(C)cc(O)c(C=O)c1O2
inactive: dose: 2.0 mg/kg/injection, schedule: Q01DX010 (ip), vehicle: saline 95 % of control | dose: 4.0 mg/kg/injection, schedule: Q01DX009 (ip), vehicle: Klucel (hydroxypropylcellulose) (HPC) 109 % of control | dose: 4.0 mg/kg/injection, schedule: Q01DX010 (ip), vehicle: saline 90 % of control and 122 % of control and 123 % of control | dose: 8.0 mg/kg/injection, schedule: Q01DX010 (ip), vehicle: saline 90 % of control | dose: 10.0 mg/kg/injection, schedule: Q04DX003 (ip), vehicle: saline 104 % of control | dose: 16.0 mg/kg/injection, schedule: Q01DX010 (ip), vehicle: saline 113 % of control and 123 % of control | dose: 20.0 mg/kg/injection, schedule: Q04DX003 (ip), vehicle: saline 115 % of control | dose: 40.0 mg/kg/injection, schedule: Q01DX001 (ip), vehicle: saline 111 % of control | dose: 80.0 mg/kg/injection, schedule: Q01DX001 (ip), vehicle: saline 115 % of control | dose: 80.0 mg/kg/injection, schedule: Q04DX003 (ip), vehicle: saline 104 % of control

COc1ccc(Nc2nc(N)nc(CNc3ccc(Cl)cc3)n2)cc1
inactive: dose: 100.0 mg/kg/injection, schedule: Q04DX003 (ip), vehicle: saline sonified 100 % of control | dose: 200.0 mg/kg/injection, schedule: Q04DX003 (ip), vehicle: saline sonified 100 % of control | dose: 400.0 mg/kg/injection, schedule: Q04DX003 (ip), vehicle: saline sonified 110 % of control

— PubChem BioAssay AID328 (DTP/NCI, 2004)
